Legend:
JAK1 = JAK1 (Homo sapiens, UniProt P23458); test: radiometric KinaseProfiler kinase assay, […] ATP; format: biochemical
TYK2 = TYK2 (Homo sapiens, UniProt P29597); test: radiometric KinaseProfiler kinase assay, […] ATP; format: biochemical
JAK3 [1] = biological target: T1, JAK3 (Homo sapiens, UniProt P52333); test: radiometric KinaseProfiler assay with ATP titration (Ki; IC50 […]); also JAK3 immunoprecipitate kinase assay; format: biochemical
T1 sequence (P52333 1-1124): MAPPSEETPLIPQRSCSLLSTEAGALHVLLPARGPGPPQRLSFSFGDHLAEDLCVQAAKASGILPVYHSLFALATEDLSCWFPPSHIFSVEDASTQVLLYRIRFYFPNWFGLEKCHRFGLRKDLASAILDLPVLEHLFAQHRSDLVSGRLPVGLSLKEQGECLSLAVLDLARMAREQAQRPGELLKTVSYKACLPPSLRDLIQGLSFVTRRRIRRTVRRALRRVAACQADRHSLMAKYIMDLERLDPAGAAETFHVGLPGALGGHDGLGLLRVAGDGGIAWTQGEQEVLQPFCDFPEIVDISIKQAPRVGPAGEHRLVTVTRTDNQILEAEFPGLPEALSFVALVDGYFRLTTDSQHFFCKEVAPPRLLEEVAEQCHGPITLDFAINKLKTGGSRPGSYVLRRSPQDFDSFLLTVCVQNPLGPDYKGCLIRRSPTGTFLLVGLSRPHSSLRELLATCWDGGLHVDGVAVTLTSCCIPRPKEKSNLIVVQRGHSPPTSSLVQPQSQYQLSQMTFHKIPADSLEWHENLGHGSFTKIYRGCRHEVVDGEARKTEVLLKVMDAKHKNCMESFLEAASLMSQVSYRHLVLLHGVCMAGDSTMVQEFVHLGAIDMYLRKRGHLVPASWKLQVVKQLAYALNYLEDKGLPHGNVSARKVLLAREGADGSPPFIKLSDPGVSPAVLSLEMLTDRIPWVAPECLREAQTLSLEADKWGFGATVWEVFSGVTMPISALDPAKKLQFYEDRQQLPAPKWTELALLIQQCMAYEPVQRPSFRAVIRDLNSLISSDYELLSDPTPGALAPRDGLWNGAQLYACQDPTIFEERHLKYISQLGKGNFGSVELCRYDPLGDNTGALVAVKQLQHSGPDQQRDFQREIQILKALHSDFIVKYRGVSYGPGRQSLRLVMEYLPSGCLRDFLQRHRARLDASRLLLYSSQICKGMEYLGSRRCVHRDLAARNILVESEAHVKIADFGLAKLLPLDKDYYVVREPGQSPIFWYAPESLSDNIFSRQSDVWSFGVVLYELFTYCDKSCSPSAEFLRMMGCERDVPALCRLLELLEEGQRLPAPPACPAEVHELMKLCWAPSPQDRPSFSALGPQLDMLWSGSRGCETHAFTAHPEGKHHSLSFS

JAK2 = JAK2 (Homo sapiens, UniProt O60674); test: radiometric KinaseProfiler kinase assay, […] ATP; format: biochemical
Chain of JAK2 (O60674 whole entry): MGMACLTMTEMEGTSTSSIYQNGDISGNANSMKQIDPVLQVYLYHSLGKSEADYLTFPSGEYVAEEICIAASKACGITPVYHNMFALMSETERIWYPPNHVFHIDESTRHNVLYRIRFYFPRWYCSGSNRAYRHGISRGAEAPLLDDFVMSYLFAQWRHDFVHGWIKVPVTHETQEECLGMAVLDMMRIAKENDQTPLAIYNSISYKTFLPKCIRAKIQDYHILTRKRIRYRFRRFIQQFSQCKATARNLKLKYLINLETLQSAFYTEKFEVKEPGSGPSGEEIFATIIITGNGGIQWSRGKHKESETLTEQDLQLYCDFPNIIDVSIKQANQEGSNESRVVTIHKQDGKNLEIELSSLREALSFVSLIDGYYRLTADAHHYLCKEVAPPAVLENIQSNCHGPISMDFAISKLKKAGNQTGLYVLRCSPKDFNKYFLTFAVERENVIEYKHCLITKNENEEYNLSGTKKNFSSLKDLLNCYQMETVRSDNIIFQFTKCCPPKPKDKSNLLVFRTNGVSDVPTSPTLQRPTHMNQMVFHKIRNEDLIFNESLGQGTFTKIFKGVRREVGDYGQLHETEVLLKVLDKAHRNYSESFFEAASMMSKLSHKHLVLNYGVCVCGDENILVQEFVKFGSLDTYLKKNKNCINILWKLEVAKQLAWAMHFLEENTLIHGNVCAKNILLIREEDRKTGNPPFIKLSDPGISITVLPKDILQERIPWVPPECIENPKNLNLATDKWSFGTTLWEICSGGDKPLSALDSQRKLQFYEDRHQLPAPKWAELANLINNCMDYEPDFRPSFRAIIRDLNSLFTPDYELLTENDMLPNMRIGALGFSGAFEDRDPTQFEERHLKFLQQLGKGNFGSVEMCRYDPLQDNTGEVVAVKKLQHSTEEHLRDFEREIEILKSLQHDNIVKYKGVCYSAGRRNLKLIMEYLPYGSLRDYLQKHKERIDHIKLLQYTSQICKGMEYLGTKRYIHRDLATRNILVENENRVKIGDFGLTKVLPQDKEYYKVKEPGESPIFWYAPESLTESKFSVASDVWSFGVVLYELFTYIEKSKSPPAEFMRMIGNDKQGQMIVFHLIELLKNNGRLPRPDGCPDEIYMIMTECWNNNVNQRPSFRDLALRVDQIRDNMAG

JAK3 [2] = biological target: T1, JAK3; test: KinaseProfiler kinase assay, positive control; format: biochemical
JAK3 [3] = biological target: T1, JAK3

Chain of JAK1 (P23458 whole entry): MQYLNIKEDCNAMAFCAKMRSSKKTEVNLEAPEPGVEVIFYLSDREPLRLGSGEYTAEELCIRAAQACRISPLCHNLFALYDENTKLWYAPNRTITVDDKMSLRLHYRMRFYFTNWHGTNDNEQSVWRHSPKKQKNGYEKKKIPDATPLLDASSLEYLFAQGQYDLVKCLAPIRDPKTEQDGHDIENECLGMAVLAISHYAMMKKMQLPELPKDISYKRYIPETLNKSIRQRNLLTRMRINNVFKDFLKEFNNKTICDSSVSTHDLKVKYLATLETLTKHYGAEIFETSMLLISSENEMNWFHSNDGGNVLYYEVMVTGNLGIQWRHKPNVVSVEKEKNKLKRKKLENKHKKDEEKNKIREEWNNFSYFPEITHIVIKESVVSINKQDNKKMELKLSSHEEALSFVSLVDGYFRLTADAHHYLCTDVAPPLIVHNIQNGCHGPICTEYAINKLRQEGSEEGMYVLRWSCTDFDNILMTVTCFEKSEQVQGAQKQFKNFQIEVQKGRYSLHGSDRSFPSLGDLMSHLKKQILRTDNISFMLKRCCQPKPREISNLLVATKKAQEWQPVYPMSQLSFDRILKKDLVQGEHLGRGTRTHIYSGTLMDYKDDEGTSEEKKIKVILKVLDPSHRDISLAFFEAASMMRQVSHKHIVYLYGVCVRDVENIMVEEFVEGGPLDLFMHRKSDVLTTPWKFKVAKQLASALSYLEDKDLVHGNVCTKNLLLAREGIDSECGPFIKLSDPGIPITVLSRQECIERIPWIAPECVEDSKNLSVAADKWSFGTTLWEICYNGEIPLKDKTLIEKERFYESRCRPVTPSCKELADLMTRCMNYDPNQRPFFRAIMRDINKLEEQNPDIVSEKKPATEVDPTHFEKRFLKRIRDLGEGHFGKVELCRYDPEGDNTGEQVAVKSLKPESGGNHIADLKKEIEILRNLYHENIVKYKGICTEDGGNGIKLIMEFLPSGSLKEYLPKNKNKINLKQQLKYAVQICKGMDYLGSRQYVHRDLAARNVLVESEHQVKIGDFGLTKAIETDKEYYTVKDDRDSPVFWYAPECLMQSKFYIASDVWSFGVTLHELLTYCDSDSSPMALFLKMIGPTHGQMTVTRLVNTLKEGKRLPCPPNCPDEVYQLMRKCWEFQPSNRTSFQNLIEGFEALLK
Chain of TYK2 (P29597 whole entry): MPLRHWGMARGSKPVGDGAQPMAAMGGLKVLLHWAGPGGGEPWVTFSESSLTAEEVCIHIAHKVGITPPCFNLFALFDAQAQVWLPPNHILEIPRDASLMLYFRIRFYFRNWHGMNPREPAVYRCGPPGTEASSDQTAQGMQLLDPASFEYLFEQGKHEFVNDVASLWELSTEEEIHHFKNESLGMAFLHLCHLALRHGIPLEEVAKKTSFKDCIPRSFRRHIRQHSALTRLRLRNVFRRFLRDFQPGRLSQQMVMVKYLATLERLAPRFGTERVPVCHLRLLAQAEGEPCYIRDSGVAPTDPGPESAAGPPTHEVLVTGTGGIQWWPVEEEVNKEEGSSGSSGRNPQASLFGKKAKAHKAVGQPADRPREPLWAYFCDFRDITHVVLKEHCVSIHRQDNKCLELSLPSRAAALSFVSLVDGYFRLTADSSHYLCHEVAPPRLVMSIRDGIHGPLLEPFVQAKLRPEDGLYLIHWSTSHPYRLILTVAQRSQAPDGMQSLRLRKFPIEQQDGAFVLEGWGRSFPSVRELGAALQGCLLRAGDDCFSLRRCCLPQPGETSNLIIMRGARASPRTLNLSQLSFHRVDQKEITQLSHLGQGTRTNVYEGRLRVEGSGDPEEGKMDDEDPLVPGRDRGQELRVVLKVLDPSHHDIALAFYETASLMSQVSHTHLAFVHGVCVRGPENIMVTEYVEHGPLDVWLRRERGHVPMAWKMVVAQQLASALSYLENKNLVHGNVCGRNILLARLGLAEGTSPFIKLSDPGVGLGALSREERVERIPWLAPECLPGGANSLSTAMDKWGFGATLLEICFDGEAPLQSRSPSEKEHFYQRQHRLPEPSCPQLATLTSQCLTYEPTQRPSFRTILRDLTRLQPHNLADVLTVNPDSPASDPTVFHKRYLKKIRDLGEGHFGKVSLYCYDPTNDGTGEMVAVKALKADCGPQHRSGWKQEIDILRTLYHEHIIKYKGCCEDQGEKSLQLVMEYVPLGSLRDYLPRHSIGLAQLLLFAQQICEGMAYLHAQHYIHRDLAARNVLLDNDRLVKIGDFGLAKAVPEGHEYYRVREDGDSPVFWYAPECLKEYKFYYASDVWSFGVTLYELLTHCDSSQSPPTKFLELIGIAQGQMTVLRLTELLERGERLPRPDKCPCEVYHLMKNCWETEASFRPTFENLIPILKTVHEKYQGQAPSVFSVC

## CC[C@H]1CN2CCc3cc(OC)c(OC)cc3[C@@H]2C[C@@H]1C[C@H]1NCCc2c1[nH]c1ccc(O)cc21 [tubulosine]
JAK1
  IC50: 69.5 nM
TYK2
  IC50: 76.3 nM
JAK3 [1]
  Ki: 12.9 ± 1.3 nM
JAK2
  IC50: 84.9 nM

## CN[C@@H]1C[C@H]2O[C@@](C)([C@@H]1OC)n1c3ccccc3c3c4c(c5c6ccccc6n2c5c31)C(=O)NC4 [staurosporine]
JAK3 [2]
  KinaseProfiler kinase assay, positive control: Staurosporine was used as a positive control for ATP‐competitive inhibition of JAKs

## Nc1ncnc2c1ncn2[C@@H]1O[C@H](COP(=O)(O)OP(=O)(O)OP(=O)(O)O)[C@@H](O)[C@H]1O [ATP]
JAK3 [3]
  Km: 212 ± 25.7 µM

Source: publication PMC7339168 (Journal of Cellular and Molecular Medicine, 2020)
